{
  "source": "ChEMBL document CHEMBL4613324",
  "about": "“Design, Synthesis, and Evaluation of a Series of Novel Super Long-Acting DPP-4 Inhibitors for the Treatment of Type 2 Diabetes” (J Med Chem, 2020)",
  "key": {"Mus musculus [1]": {"system": "Mus musculus", "test": "Antidiabetic activity in ob/ob mouse assessed as reduction in decrease in HbA1c level at 3 to 10 mg/kg, po dosed once every three days for 31 day", "assay_type": "functional, organism-based"}, "CYP2C19": {"biological_target": "CYP2C19 (Homo sapiens, UniProt P33261)", "sequence (P33261 whole entry)": "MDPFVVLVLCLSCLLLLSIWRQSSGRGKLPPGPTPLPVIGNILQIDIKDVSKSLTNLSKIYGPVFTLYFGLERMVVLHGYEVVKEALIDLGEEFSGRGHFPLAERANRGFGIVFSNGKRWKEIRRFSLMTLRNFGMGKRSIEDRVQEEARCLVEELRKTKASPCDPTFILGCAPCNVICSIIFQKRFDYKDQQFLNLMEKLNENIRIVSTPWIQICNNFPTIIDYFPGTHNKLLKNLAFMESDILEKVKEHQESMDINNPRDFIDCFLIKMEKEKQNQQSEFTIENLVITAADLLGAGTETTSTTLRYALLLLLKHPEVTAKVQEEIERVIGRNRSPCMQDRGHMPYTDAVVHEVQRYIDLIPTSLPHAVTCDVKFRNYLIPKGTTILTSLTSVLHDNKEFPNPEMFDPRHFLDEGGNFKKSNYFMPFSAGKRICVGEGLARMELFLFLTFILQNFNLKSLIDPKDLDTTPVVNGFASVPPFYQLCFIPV", "test": "Stability assessed as recombinant human CYP2C19 mediated compound metabolism by measuring parent compound remaining after 30 mins relative to control", "assay_type": "ADME", "settings": "read-out: Stability"}, "[2]": {"biological_target": "Voltage-gated inwardly rectifying potassium channel KCNH2 (Homo sapiens, UniProt Q12809)", "sequence (Q12809 whole entry)": "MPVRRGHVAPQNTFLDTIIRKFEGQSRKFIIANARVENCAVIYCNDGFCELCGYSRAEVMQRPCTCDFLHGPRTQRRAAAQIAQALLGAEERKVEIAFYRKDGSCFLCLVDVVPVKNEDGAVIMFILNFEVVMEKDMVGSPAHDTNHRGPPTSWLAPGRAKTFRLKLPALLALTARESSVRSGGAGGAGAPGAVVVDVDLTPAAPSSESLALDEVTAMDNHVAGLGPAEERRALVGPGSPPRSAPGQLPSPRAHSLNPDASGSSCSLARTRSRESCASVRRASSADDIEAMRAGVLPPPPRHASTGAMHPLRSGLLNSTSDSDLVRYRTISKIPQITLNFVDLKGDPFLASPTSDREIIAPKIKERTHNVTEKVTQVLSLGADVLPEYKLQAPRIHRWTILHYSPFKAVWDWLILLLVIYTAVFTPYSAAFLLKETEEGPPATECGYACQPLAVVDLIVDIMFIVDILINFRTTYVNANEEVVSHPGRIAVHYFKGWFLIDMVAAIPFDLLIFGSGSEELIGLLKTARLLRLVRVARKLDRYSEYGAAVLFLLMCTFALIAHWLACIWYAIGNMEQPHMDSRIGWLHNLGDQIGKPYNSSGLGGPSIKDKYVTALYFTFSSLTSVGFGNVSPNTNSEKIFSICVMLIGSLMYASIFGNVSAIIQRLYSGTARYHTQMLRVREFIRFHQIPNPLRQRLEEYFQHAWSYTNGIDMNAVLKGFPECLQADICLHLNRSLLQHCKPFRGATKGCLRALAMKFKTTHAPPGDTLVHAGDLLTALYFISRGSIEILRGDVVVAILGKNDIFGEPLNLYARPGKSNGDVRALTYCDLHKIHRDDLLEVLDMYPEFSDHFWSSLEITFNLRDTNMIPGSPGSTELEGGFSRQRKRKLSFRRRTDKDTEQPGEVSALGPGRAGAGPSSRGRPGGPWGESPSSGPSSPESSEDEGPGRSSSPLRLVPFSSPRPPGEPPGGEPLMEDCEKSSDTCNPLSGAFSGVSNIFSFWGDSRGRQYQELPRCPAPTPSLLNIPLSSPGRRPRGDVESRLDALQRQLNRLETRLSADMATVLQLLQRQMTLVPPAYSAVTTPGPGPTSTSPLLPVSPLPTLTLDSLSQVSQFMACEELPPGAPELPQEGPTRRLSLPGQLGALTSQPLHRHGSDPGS", "test": "Inhibition of human ERG by manual whole-cell patch-clamp assay"}, "[3]": {"biological_target": "Dipeptidyl peptidase 4 (Mus musculus) (UniProt P28843)", "sequence (P28843 whole entry, looked up)": "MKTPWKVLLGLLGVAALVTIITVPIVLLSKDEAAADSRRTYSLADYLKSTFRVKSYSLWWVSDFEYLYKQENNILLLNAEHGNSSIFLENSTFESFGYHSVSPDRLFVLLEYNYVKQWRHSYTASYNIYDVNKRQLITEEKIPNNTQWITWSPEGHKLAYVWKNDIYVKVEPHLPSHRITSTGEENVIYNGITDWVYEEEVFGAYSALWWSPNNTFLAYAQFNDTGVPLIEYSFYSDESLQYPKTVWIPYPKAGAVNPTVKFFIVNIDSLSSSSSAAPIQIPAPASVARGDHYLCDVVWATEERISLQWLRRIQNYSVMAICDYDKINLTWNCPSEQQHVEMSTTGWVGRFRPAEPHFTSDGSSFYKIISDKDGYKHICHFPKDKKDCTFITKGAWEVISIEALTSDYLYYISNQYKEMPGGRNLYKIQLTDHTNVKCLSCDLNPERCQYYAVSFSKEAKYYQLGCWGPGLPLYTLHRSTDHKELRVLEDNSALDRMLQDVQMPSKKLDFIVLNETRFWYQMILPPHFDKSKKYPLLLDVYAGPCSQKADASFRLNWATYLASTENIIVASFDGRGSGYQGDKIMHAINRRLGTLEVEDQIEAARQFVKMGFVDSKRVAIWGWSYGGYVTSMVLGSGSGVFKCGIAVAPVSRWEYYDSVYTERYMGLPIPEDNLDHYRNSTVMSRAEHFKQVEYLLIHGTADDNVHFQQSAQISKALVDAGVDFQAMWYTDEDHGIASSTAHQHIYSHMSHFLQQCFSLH", "test": "Ex-vivo inhibition of DPP4 in plasma isolated from ob/ob mouse assessed as time duration during which DPP4 inhibition rate stays above 80% treated at 30 mg/kg, po measured after 2 to 72 hrs by fluorescence based assay", "assay_type": "functional, organism-based"}, "Cytochrome P450 2A6 [4]": {"biological_target": "T1, Cytochrome P450 2A6 (Homo sapiens, UniProt P11509)", "T1 sequence (P11509 whole entry)": "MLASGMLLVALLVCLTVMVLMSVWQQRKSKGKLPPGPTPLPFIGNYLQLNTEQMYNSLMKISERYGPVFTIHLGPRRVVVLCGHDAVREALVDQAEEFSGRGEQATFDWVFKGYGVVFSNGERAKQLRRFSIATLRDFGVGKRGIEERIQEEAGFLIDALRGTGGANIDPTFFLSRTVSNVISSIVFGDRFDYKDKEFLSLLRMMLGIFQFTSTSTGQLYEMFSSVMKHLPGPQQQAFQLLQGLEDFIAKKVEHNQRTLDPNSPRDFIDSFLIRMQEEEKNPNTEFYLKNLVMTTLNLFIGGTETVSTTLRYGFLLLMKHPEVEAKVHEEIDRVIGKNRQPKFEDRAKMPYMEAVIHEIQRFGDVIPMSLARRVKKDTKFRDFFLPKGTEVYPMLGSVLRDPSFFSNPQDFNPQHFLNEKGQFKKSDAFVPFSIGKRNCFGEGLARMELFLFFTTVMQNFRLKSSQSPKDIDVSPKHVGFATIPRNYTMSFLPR", "test": "(§1) Inhibition of recombinant human CYP2A6", "assay_type": "ADME"}, "Cytochrome P450 2D6 [5]": {"biological_target": "T2, Cytochrome P450 2D6 (Homo sapiens, UniProt P10635)", "T2 sequence (P10635 whole entry)": "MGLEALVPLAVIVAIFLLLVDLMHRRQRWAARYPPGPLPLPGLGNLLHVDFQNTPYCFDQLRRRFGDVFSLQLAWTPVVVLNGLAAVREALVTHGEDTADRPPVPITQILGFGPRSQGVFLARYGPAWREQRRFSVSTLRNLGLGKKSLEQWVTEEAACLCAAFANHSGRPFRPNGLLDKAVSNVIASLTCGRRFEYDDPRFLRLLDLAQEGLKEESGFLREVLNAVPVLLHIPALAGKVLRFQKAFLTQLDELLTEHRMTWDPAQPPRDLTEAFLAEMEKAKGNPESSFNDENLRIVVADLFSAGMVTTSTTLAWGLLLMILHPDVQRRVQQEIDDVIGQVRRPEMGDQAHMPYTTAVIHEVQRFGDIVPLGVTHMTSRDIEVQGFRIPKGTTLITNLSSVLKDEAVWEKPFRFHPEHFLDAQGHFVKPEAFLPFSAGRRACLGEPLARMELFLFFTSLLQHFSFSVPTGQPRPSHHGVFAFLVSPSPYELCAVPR", "test": "(§2) Inhibition of recombinant human CYP2D6", "assay_type": "ADME"}, "Cytochrome P450 2A6 [6]": {"biological_target": "T1, Cytochrome P450 2A6", "test": "as §1", "assay_type": "ADME", "remark": "listed apart in the source"}, "Cytochrome P450 3A4 [7]": {"biological_target": "T3, Cytochrome P450 3A4 (Homo sapiens, UniProt P08684)", "T3 sequence (P08684 whole entry)": "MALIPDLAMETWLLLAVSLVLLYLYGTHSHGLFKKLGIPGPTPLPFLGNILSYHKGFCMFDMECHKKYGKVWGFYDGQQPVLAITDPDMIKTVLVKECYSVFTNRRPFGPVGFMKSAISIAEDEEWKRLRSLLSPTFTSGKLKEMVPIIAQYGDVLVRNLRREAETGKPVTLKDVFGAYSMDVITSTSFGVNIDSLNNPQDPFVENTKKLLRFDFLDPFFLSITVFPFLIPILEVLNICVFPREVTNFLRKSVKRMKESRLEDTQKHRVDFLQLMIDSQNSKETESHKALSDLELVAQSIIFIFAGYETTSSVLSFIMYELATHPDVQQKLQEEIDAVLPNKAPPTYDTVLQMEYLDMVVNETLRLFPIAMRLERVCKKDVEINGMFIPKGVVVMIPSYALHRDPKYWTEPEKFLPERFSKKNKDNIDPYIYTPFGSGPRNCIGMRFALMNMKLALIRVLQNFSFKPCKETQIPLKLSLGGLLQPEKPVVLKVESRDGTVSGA", "test": "(§3) Inhibition of recombinant human CYP3A4 using midazolam as substrate", "assay_type": "ADME"}, "Cytochrome P450 2C8": {"biological_target": "T4, Cytochrome P450 2C8 (Homo sapiens, UniProt P10632)", "T4 sequence (P10632 whole entry)": "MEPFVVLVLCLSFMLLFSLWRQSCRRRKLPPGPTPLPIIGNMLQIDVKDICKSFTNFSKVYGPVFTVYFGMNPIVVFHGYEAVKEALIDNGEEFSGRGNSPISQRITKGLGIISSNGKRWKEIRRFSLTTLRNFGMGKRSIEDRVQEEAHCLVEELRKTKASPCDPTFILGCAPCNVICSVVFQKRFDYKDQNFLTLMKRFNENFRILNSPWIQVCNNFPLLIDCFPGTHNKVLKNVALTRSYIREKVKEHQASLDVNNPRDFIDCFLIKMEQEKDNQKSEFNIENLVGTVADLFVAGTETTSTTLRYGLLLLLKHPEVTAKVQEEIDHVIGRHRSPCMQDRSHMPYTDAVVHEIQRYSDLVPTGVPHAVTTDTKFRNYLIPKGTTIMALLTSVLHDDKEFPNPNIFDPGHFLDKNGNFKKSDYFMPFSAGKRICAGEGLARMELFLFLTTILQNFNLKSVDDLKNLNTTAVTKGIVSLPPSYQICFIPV", "test": "Inhibition of recombinant human CYP2C8", "assay_type": "ADME"}, "[8]": {"test": "Toxicity in male Sprague-Dawley rat during 3-month repeated dose toxicology study", "settings": "in vivo"}, "Cytochrome P450 2B6": {"biological_target": "T5, Cytochrome P450 2B6 (Homo sapiens, UniProt P20813)", "T5 sequence (P20813 whole entry)": "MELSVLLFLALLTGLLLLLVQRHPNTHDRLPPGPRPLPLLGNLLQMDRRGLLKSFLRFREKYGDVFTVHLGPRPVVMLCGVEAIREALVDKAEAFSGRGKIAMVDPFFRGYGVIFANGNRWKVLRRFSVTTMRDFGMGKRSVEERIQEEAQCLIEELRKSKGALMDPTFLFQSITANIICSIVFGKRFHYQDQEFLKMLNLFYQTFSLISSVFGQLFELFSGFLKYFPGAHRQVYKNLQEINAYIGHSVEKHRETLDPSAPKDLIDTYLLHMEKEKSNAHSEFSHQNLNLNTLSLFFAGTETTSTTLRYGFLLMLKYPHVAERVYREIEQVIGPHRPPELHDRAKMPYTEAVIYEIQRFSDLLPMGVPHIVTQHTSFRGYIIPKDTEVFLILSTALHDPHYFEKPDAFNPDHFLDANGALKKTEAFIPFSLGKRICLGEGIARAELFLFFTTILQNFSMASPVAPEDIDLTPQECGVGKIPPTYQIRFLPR", "test": "Inhibition of recombinant human CYP2B6", "assay_type": "ADME"}, "Cytochrome P450 3A4 [9]": {"biological_target": "T3, Cytochrome P450 3A4", "test": "as §3", "assay_type": "ADME", "remark": "listed apart in the source"}, "Cytochrome P450 3A5 [10]": {"biological_target": "T6, Cytochrome P450 3A5 (Homo sapiens, UniProt P20815)", "T6 sequence (P20815 whole entry)": "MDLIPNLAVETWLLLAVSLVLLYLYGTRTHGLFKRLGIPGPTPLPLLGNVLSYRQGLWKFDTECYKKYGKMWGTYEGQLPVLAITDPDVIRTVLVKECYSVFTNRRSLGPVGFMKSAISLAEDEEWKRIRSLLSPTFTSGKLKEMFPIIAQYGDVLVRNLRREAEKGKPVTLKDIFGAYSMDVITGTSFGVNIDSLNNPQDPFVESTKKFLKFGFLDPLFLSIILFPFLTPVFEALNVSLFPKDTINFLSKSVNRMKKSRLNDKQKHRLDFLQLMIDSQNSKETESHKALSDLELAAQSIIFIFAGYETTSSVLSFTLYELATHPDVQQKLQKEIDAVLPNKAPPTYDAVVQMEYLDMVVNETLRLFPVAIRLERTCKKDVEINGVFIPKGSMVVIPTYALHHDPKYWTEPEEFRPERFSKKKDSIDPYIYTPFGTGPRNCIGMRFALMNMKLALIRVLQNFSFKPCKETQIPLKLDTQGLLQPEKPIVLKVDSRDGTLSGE", "test": "(§4) Inhibition of recombinant human CYP3A5 using testosterone as substrate", "assay_type": "ADME"}, "Cytochrome P450 3A5 [11]": {"biological_target": "T6, Cytochrome P450 3A5", "test": "as §4", "assay_type": "ADME", "remark": "listed apart in the source"}, "[12]": {"test": "Half life in ICR mouse at 0.5 mg/kg, iv measured after 0.0833 to 120 hrs by LC-MS-MS analysis", "assay_type": "ADME, organism-based", "settings": "in vivo"}, "[13]": {"test": "Intrinsic clearance in mouse liver microsomes at 0.5 uM incubated for 0.5 to 60 mins by LC-MS/MS analysis", "assay_type": "ADME, Microsome", "settings": "read-out: CLH"}, "CYP2A6": {"biological_target": "CYP2A6 (Homo sapiens, UniProt P11509)", "test": "Stability assessed as recombinant human CYP2A6 mediated compound metabolism by measuring parent compound remaining after 30 mins relative to control", "assay_type": "ADME", "settings": "read-out: Stability"}, "Cytochrome P450 3A5 [14]": {"biological_target": "T6, Cytochrome P450 3A5", "test": "Inhibition of recombinant human CYP3A5 using midazolam as substrate", "assay_type": "ADME"}, "Cytochrome P450 2D6 [15]": {"biological_target": "T2, Cytochrome P450 2D6", "test": "as §2", "assay_type": "ADME", "remark": "listed apart in the source"}, "Mus musculus [16]": {"system": "Mus musculus", "test": "Antidiabetic activity in ob/ob mouse assessed as reduction in decrease in HbA1c level at 1 mg/kg, po dosed once every three days for 31 day relative to control", "assay_type": "functional", "design": "scale not given: the % may be the effect or the level left"}, "[17]": {"test": "AUC in female Sprague-Dawley rat during 3-month repeated dose toxicology study", "assay_type": "ADME", "settings": "in vivo"}},
  "note": "Activity calls are given as the source filed them. The rule behind the calls is not given here.",
  "data": [
    {"smiles": "CS(=O)(=O)n1cc2c(n1)CN([C@@H]1C[C@H](N)[C@@H](c3cc(F)ccc3F)O[C@@H]1C(F)(F)F)C2", "note": "[COFROGLIPTIN]", "values": [
      {"measurement": "Activity", "setting": "Mus musculus [1]", "value": "Active"},
      {"measurement": "remaining at 0.5 h", "setting": "CYP2C19", "value": "> 95", "unit": "%"},
      {"measurement": "IC50", "setting": "[2]", "value": "> 30", "unit": "µM"},
      {"measurement": "TIME", "setting": "[3]", "value": 72, "unit": "h"},
      {"measurement": "IC50", "setting": "Cytochrome P450 2A6 [4]", "value": "> 100", "unit": "µM"},
      {"measurement": "IC50", "setting": "Cytochrome P450 2D6 [5]", "value": "> 100", "unit": "µM"},
      {"measurement": "IC50", "setting": "Cytochrome P450 2A6 [6]", "value": "> 100", "unit": "µM"},
      {"measurement": "IC50", "setting": "Cytochrome P450 3A4 [7]", "value": "> 100", "unit": "µM"},
      {"measurement": "IC50", "setting": "Cytochrome P450 2C8", "value": "> 100", "unit": "µM"},
      {"measurement": "NOAEL at 3 month", "setting": "[8]", "value": 300, "unit": "mg/kg"},
      {"measurement": "IC50", "setting": "Cytochrome P450 2B6", "value": "> 100", "unit": "µM"},
      {"measurement": "IC50", "setting": "Cytochrome P450 3A4 [9]", "value": 45.8, "unit": "µM"},
      {"measurement": "IC50", "setting": "Cytochrome P450 3A5 [10]", "value": "> 100", "unit": "µM"},
      {"measurement": "IC50", "setting": "Cytochrome P450 3A5 [11]", "value": "> 100", "unit": "µM"},
      {"measurement": "half-life", "setting": "[12]", "value": 25.6, "unit": "h"},
      {"measurement": "microsomal CLint at 0.5 µM", "setting": "[13]", "value": 0.8, "unit": "µL/min/mg"},
      {"measurement": "remaining at 0.5 h", "setting": "CYP2A6", "value": "> 95", "unit": "%"},
      {"measurement": "IC50", "setting": "Cytochrome P450 3A5 [14]", "value": "> 100", "unit": "µM"},
      {"measurement": "IC50", "setting": "Cytochrome P450 2D6 [15]", "value": "> 100", "unit": "µM"},
      {"measurement": "Activity", "setting": "Mus musculus [16]", "value": 3.1, "unit": "%"},
      {"measurement": "AUC", "setting": "[17]", "value": 4240, "unit": "µg·h/mL"}
    ]}
  ]
}
